Results as given in patent publication US11883430B2, “CD38-NAD+ regulated metabolic axis in anti-tumor immunotherapy” (MUSC FOUNDATION FOR RESEARCH DEVELOPMENT, priority 2016, dated 2024).

Tests used:
[1] = test system: Foxo1; assay: Confocal imaging of Foxo1 localization in Th17 and Th1/17 cells; format: cell-based, mouse; conditions: Th17 and Th1/17 cells programmed with SC-79 0.5 μg/ml (FIG. 13H)
[2] = test system: B16-F10 melanoma; assay: Adoptive T cell transfer, s.c. B16-F10 melanoma in C57BL/6 mice, tumor growth; format: in vivo, mouse; conditions: TRP-1 Th1/17 differentiated with DON 3 μM vs DMSO, 0.5×10^6 cells (FIG. 3P)
Method: Adoptive T cell protocol: B16-F10 or B16-F10-A2^+ mouse melanoma tumor cells (2.5×10^6) were injected subcutaneously (s.c.) into left flank of 8-10 weeks old C57BL/6 or HLA-A2^+ (or HLA-A2^+-RAG^−/−) mice respectively. After 9 days of tumor establishment, recipient mice were injected (i.p) with cyclophosphamide (4 mg/mice) before adoptively transferring (i.v) either h3T (CD4^+Vβ12^+) or TRP-1 (CD4^+Vβ14^+) Th1, Th17, Th1/17 cells on day 10. Similarly, Pmel (CD8^+Vβ13^+) and TCR-I (CD8^+Sv40 antigen specific) Tc1, Tc17 and Tc1/17 cells were adoptively transferred (i.v) into either 9 days established B16-F10 tumor bearing mice or TRAMP (spontaneously develop prostate tumor) respectively. For in vivo neutralization of IFNγ and IL17, neutralizing antibody to IFNγ and IL17 or matched isotype antibody was injected (100 μg/mouse; i.p.) in tumor bearing mice following adoptive transfer of T cells. In some experiments, tumor bearing mice received anti-CD38 antibody (50 μg/mouse; i.p.) after adoptive TRP-1 Th0 cells transfer. Recipient mice were given IL2 (50,000 U/mouse; i.p) for 3 consecutive days after ACT.

[3] = test system: Th1/17 cells; assay: Intracellular cytokine (IFNγ, IL17) flow cytometry after PMA and ionomycin; format: cell-based, mouse
From the text: T cell differentiation: Naïve CD4^+ T cells were purified from the total splenocytes of 6-9 weeks old WT (C57BL/6) and KO (Foxo1^fl/flLck^cre, Sirt1^fl/flCD4^cre, CD38KO) mice using CD4^+ T cell isolation kit (Miltenyi Biotec) according to manufacturer's protocol. Total splenocytes from 6-9 weeks old TCR transgenic mouse TRP-1 (bears class-II restricted CD4^+ T cells) or Pmel (bears class-I restricted CD8^+ T cells) or TCR-I (bears class-I restricted CD8^+ T cells) were also used. Within experiments mice were age and sex matched. Purified naïve CD4^+ T cells or total splenocytes were differentiated to Th1 or Tc1 (10 ng/ml IL12, 50 U/ml IL2 and 10 μg/ml anti-IL4), Th17 or Tc17 (3 ng/ml TGFβ, 25 ng/ml IL6, 10 μg/ml anti-IL4 and 10 μg/ml anti-IFNγ), Th1/17 or Tc1/17 (20 ng/ml IL1β, 25 ng/ml IL6, 10 ng/ml IL12, 20 ng/ml IL23, 400 pg/ml TGFβ, 10 μg/ml anti-IL4, 5 μg/ml anti-IFNγ), iTreg (5 ng/ml TGFβ, 100 IU/ml IL2, 10 μg/ml anti-IL4 and 10 μg/ml anti-IFNγ or Th0 (50 IU/ml IL2) in presence of plate bound anti-CD3 (5 μg/ml) and anti-CD28 (5 μg/ml). For TRP-1, gp100 or Sv40 specific generation of different Th or Tc subsets, total splenocytes from either TRP-1, Pmel or TCR-I TCR transgenic mice were stimulated with 1 μg/ml respective peptides in presence of above-mentioned polarizing conditions. T cells were differentiated for three days in IMDM media supplemented with 10% FCS, 4 mM L-glutamine, 100 U/ml penicillin, 100 μg/ml streptomycin, 55 μM beta-mercaptoethanol under 7% CO2, atmospheric oxygen at 37° C. in a humidified incubator. For evaluation of intracellular cytokines by flow cytometry, T cells were re-stimulated with PMA (500 ng/ml) and Ionomycin (500 ng/ml) for 4 hr in presence of Glogi inhibitors. […]
Flow cytometry: Staining for cell surface markers was performed by incubating cells with antibody at 1:200 dilutions in FACS buffer (0.1% BSA in PBS) for 30 min at 4° C. […] Samples were acquired on LSRFortessa and analysed with FlowJo software (Tree Star, OR).

[4] = test system: Th1/17 cells; assay: Viable cells by FACS live/dead dye staining; format: cell-based, mouse; conditions: cultured in presence of DON 3 μM; compared to Th1 or Th17 cell (FIG. 11H)
Method: FIGS. 11A-11L: Metabolic commitment of Th1, Th17 and Th1/17 cells (see FIGS. 3-4). (A-C) In vitro differentiated murine Th1, Th17 and Th1/17 cells were used for determining: (A) intracellular expression of various glycolytic enzymes, (B) cell surface expression of different amino acid transporters, and (C) intracellular expression of glutaminolytic enzymes by flow cytometry. Data are representative of three independent experiments with similar results. (D) Western blot analysis determined the protein level of various glutamine transporters and glutaminolytic enzymes in in vitro differentiated Th1, Th17 and Th1/17 cells. β-actin was used as a loading control. Data are representative of two independent experiments with similar results. (E-F) Purified CD4^+ T cells were differentiated to Th1, Th17 and Th1/17 cells either in presence or absence of 2DG (1 mM) or DON (3 μM) and characterized for: (E) intracellular cytokine secretion after restimulating them with PMA and ionomycin for 4 hr, (F) determining the frequency of cells that were IFNγ^+, IL17^+ or IFNγ^+IL17^+ in each treatment groups and presented using scatter plot. Statistical comparison between treated and untreated groups are indicated. […] (I) Purified CD4^+ T cells were differentiated into Th1, Th17 and Th1/17 cells and intracellular metabolites were measured using mass spectrometry. […]

[5] = test system: Th1/17 cells; assay: Glutamine uptake assay (radiolabelled glutamine); format: cell-based, mouse; conditions: DON pre-treatment, different conc. (FIG. 3O)
Method: Glutamine uptake assay: Ex vivo programmed Th cell subsets (1×10^6 cells) were starved in glutamine free RPMI-1640 media (Thermo Fisher Scientific, Cat #21870-076) for 15 min before incubated with L-2,3,4-[^3H] glutamine (0.5 mCi, PerkinElmer) for 10 min at room temperature. Cells were lysed in 500 μl of lysis buffer (Sigma-Aldrich, St. Louis, MO) and radioactivity was measured by liquid scintillation.

[6] = test system: NAD+; assay: Intracellular NAD+ level; format: cell-based, mouse; conditions: Th1/17 differentiated with 2DG 1 mM, DON 3 μM or FK866 10 nM (FIGS. 11K, 11L)
Method: NAD^+, Sirt1 activity and Foxo1 activity assay: Intracellular NAD^+ level in T cells were measured spectrophotometrically following the manufacturer's protocol (Cayman chemical, Ann Arbor, MI). Using equal amounts of nuclear protein extracted by NE-PER Nuclear and Cytoplasmic Extraction Reagents (Thermo Fisher Scientific, Waltham, MA), Sirt1 activity (Universal Sirt1 Activity Assay Kit, Abcam, Cambridge, MA) and Foxo1 activity (FKHR transcription Factor Assay Kit, Active Motif, Carlsbad, CA) were determined as per manufacturer's protocol.

[7] = test system: B16-F10-HLA-A2+ murine melanoma; assay: Adoptive T cell transfer, s.c. B16-F10-HLA-A2+ melanoma, tumor growth; format: in vivo, mouse; conditions: Th1/17 differentiated ex vivo with FK866 or Ex527 vs untreated/vehicle (FIGS. 4E, 5F)
[8] = test system: Th1 cells; assay: Intracellular cytokine (IFNγ, IL17) flow cytometry after PMA and ionomycin; format: cell-based, mouse; conditions: Th1 subsets (FIGS. 12A and 12B)
Method: FIGS. 12A-12D: Loss of Sirt1 expression and NAD+ levels on Th1/17 cell phenotype and function (see FIG. 5). (A) Purified CD4^+ T cells from C57BL/6 were used to differentiate to Th1/17 cells either alone or in the presence of Ex527, a pharmacological inhibitor of Sirt1. Cells were then restimulated with PMA and ionomycin for 4 hr in presence of golgi block to stain for intracellular accumulation of cytokines IFNγ and IL17. (B) Th1 cells were cultured either in presence or absence of NAD+ inhibitor FK866 (10 nM) and intracellular staining was performed for IFNγ and IL17. Data was acquired using FACS and analysis was carried out using FlowJo software. (C-D) Purified splenic CD4^+ T cells from either C57BL/6 WT or Sirt1fl/flCD4Cre (Sirt1KO) mouse were used to ex vivo program for Th1/17 cells. RNA was prepared and quantitative PCR analysis was performed for the expression of various glycolysis (C) and glutaminolysis (D) associated genes in either WT or Sirt1KO Th1/17 cells. Data in section A-D are representative of three independent experiments.
T cell differentiation: Naïve CD4^+ T cells were purified from the total splenocytes of 6-9 weeks old WT (C57BL/6) and KO (Foxo1^fl/flLck^cre, Sirt1^fl/flCD4^cre, CD38KO) mice using CD4^+ T cell isolation kit (Miltenyi Biotec) according to manufacturer's protocol. […]

[9] = test system: Th1/17 cells; assay: qPCR gene expression in Th1/17 cells; format: cell-based, mouse; conditions: Th1/17 differentiated with FK866 10 nM or Ex527 (FIGS. 4D, 5D)
Method: Real-time quantitative-PCR: Total RNA was extracted from pellets of the indicated T cell subsets (2×10^6 cells) using Trizol reagent (Life technologies, Grand Island, NY). cDNA was generated from 1 μg total RNA using iScript cDNA Synthesis Kit (BioRad, Hercules, CA). SYBR Green incorporation quantitative real-time PCR was performed using a SYBR Green mix (Biorad, Hercules, CA) in the CFX96 Detection System (BioRad, Hercules, CA). Expression of different genes was quantified relative to Actb.

[10] = test system: Th1/17 cells; assay: Global acetylation of nuclear protein, western blot; format: cell-based, mouse; conditions: Nampt inhibitor FK866 treatment (FIG. 6A, FIG. 13A)
Method: Immunoblotting and Immunoprecipitation of Foxo1: For evaluation of global protein acetylation, cells were lysed using NE-PER Nuclear and Cytoplasmic Extraction Reagents (Thermo Fisher Scientific, Waltham, MA) and nuclear fraction was isolated according to the manufacturer's protocol. Equal amounts of nuclear protein (20 μg) were separated by 4%-12% SDS-PAGE and then transferred to nitrocellulose membranes. The membranes were probed with anti-Acetyl-Lysine antibody (Cell Signaling Technologies, Danvers, MA) followed by incubation with secondary antibody (HRP-conjugated goat anti-rabbit IgG at 1:3000 dilutions) for overnight at 4° C. Pre-stained molecular weight and magic markers were run in parallel to identify the molecular weight of proteins. For chemiluminescent detection, the membranes were treated with enhanced chemiluminescent reagent, and the signal was monitored using a Biorad Versadoc imaging system (Biorad, Hercules, CA). Same membrane was stripped with stripping buffer (Bioland Scientific, Paramount, CA) according to manufacturer's protocol and re-probed with antibody specific to histone H3 (Cell Signaling Technologies, Danvers, MA) as reference control.

Structure (SMILES)	nuclear Foxo1 levels [1]	anti-tumor response of DON pre-treated Th1/17 cells upon ACT [2]	IFNγ+IL-17+ secreting fraction ([3]; DON 3 μM in differentiation media from day 0 (FIGS. 11E, 11F))	viability of Th1/17 cells [4]	uptake of radio labelled glutamine [5]	NAD+ levels in Th1/17 cells [6]	tumor control by inhibitor-treated Th1/17 cells upon adoptive transfer [7]	frequency of IL17+IFNγ+ population ([3]; FK866 10 nM in differentiation media from day 0 (FIG. 4C))	IFNγ secreting fraction [8]	expression of stemness-associated genes [9]	reduced global acetylation of Th1/17 cells [10]
CCOC(=O)C1=C(N)Oc2ccc(Cl)cc2C1C(C#N)C(=O)OCC (stereo not drawn) [SC-79]	reduced nuclear Foxo1 levels	–	–	–	–	–	–	–	–	–	–
[N-]=[N+]=CC(=O)CC[C@H](N)C(=O)O [DON, 6-Diazo-5-oxo-L-norleucine]	–	significant attenuation of the anti-tumor response upon ACT	reduction in IFNγ^+IL-17^+ secreting fraction	reduced by two-folds	reduced the uptake of radio labelled glutamine in a dose dependent manner	significantly reduced NAD^+ levels	–	–	–	–	–
O=C(/C=C/c1cccnc1)NCCCCC1CCN(C(=O)c2ccccc2)CC1 [FK866]	–	–	–	–	–	depletion of NAD^+	failed to exhibit potent tumor control upon adoptive transfer	two-fold decrease in the frequency of IL17^+IFNγ^+ population	No significant difference	reduced expression of stemness-associated molecules such as Tcf7, Bcl6, and β-catenin	reversed to a certain extent
